The results in this text go back to patent US9808528B2, “Protein-polymer-drug conjugates and methods of using same” (priority 2014, dated 2017).

For orientation: IC50 means the point on the concentration scale where inhibition reaches its midpoint.

Where a SMILES comes first, the peptide text is derived from it. [ ]: non-standard residue; d: D form. The star is where a group is joined. Dolaproine = CO[C@@H]([C@@H]1CCCN1)[C@@H](C)C(=O)O; Dil = CC[C@H](C)[C@H](NC)[C@@H](CC(=O)O)OC; NMe2Val = CC(C)[C@@H](C(=O)*)N(C)C; NH(3-hydroxypropyl) = OCCCN*

Data set [1] relates to BT474 tumor fragments. Nature of the data set: Tumor growth response, BT474 xenograft. The format is in vivo, mice.
Protocol: (§1) Female CB-17 SCID mice were inoculated subcutaneously with BT474 tumor fragments (n=10 for each group) or JIMT-1 cells (n=10 for each group) or NCI-N87 cells (n=10 for each group). […] Test compounds or vehicle were dosed IV as a single dose on day 1. Tumor size was measured at the times indicated in FIGS. 1 to 6 using digital calipers. Tumor volume was calculated and was used to determine the delay in tumor growth. Mice were sacrificed when tumors reached a size of 800 to 1500 mm^3. Tumor volumes are reported as the mean±SEM (“standard error of mean”) for each group.
The test system of data set [2] is HL-60. Nature of the data set: Cell viability assay (Cell Titer-Glo). The format is cell-based. The settings on record: for IC50: CD33 expressing cells, 72 h or 6 days incubation. The protocol:
Dose response curves were generated using SoftMax Pro software. IC50 values were determined from four-parameter curve fitting.
CD33 expressing cells HL-60 were passed at a density of 5,000 cells per well and treated with PBRM-polymer-drug conjugate on the same day. After 72 h or 6 days incubation, the cells were analyzed using the same procedure described above.
For orientation: Cellular ATP, detected with luciferase, serves as a proxy for viable cell number.

Data set [3] relates to HL-60 cells. Nature of the data set: Tumor growth response, HL-60 xenograft. The format is in vivo, mice. The settings on record: for tumor volume response (in words), FIG. 3: single IV dose day 1, 20 mg/kg.
Protocol: Female NCr nu/nu mice were inoculated subcutaneously with HL-60 cells (n=10 for each group). Test compounds or vehicle were dosed IV as a single dose on day 1. Tumor size was measured at the times indicated in FIGS. 1 to 6 using digital calipers. Tumor volume was calculated and was used to determine the delay in tumor growth. Mice were sacrificed when tumors reached a size of 800 to 1500 mm^3. Tumor volumes are reported as the mean±SEM (“standard error of mean”) for each group.
Female NCr nu/nu mice were inoculated subcutaneously with HL-60 cells (n=10 for each group). Test compounds or vehicle were dosed IV as a single dose on day 1. Tumor size was measured at the times indicated in FIG. 3 using digital calipers. Tumor volume was calculated and was used to determine the delay in tumor growth. Mice were sacrificed when tumors reached a size of 2000 mm^3. Tumor volumes are reported as the mean±SEM for each group.
The test system of data set [4] is BT474. The data set can be described thus: Cell viability assay (Cell Titer-Glo). Type of data set: cell-based, human. To be noted: 72 h incubation; AF-HPA as toxin equivalents.
Protocol: (§2) PBRM-polymer-drug conjugates were evaluated for their antiproliferation properties in tumor cell lines in vitro using Cell Titer-Glo (Promega Corp). Cells were plated in black walled 96-well plate and allowed to adhere overnight at 37° C. in a humidified atmosphere of 5% CO2. SKBR3, BT474, NCI-N87 cells (HER2 expressing cells), MCF7 cells (HER2 low expressing levels cells) and JIMT1 cells (HER2 medium expression level cells) were plated at a density of 5,000 cells per well. The next day the medium was replaced with 50 μL fresh medium and 50 μL of 2× stocks of PBRM-polymer-drug conjugate, drug polymer conjugate or drug were added to appropriate wells, mixed and incubated for 72 h. Cell Titer-Glo reagent was added to the wells at room temperature and the luminescent signal was measured after 10 min using a SpectraMax M5 plate reader (Molecular Devices). Dose response curves were generated using SoftMax Pro software. IC50 values were determined from four-parameter curve fitting.
In data set [5] the test system is N87. The data set can be described thus: Cell viability assay (Cell Titer-Glo). To be noted: 72 h incubation; AF-HPA as toxin equivalents. Type of data set: cell-based.
Protocol: as §2
In data set [6] the test system is NCI-N87 cells. Nature of the data set: Tumor growth response, NCI-N87 xenograft. The format is in vivo, mice.
Protocol: as §1
The test system of data set [7] is JIMT1. Nature of the data set: Cell viability assay (Cell Titer-Glo). The format is cell-based. The settings on record: 72 h incubation; HER2 medium expression level cells; AF-HPA as toxin equivalents.
Protocol: as §2
In data set [8] the test system is MCF7. Nature of the data set: Cell viability assay (Cell Titer-Glo). The format is cell-based. The settings on record: 72 h incubation; HER2 low expressing cells; AF-HPA as toxin equivalents.
Protocol: as §2
For data set [9], the system named is SKBR3. The data set can be described thus: Cell viability assay (Cell Titer-Glo). The settings on record: 72 h incubation; AF-HPA as toxin equivalents. Type of data set: cell-based.
Protocol: as §2
The target of data set [10] is hErbB2 (Homo sapiens, UniProt P04626). The data set can be described thus: Ligand binding studies by BIAcore surface plasmon resonance (SPR). To be noted: 25° C.; immobilized hErbB2; BioRad ProteOn XPR36.
Protocol: The kinetic binding of the PBRM-polymer-drug conjugate to an immobilized receptor is determined by BIAcore SPR. The binding constants for the PBRM in the PBRM-polymer-drug conjugate and PBRM alone can be determined using standard BIAcore procedures.
The kinetic binding of the PBRM-polymer-drug conjugate to an immobilized receptor was determined by BIAcore SPR.
Data set [11] has as its system JIMT-1. The settings on record: read-out: IC50 JIMT-1; HER2 molecules per cell 80,000; Her2 expression 2+; 72 hours or 6 days.
Data set [12] has as its system JIMT-1 cells. Nature of the data set: Tumor growth response, JIMT-1 xenograft. Type of data set: in vivo, mice.
Protocol: as §1
Data set [13] in a line: Mouse tissue distribution after administration of PBRM-polymer-drug conjugates.
Protocol: To determine the concentration of the free drug in the sample, the acidified sample was treated with acetonitrile. The free drug was extracted from the supernatant and analyzed by LC-MS/MS.
At 48 hours post administration, the mice were sacrificed and the blood was collected by terminal cardiac.

As for “Trastuzumab-((EG2-MI (1%))-(10 kDa PHF-GA (29%)-(AF-HPA-Ala (6%)) [Example 13]”, in data set [1] (5 mg/kg single IV dose), the “regressions, FIG. 1” value stood at 100% and the “tumor free survival, FIG. 1” value was determined as 80%. Also, the “tumor volume response (in words), FIG. 1” value in data set [1] (single IV dose day 1, conjugates […] and 5 mg/kg, trastuzumab 10 mg/kg) is recorded as “reduction of tumor volume”.

With “Lintuzumab-((EG2-MI (2%)-(10 kDa PHF-BA (30%)-(AF-HPA-Ala (9%)) [Example 8]”, the “antiproliferative activity compared to control conjugate (in words)” value in [2] (CD33 expressing cell line HL-60) is “higher antiproliferative activity”. The compound also yielded an IC50 in data set [2] of 770 pM. The “regressions, FIG. 3” value in data set [3] (20 mg/kg single IV dose) was found to be 100%. Besides, the “tumor free survival on day 44, FIG. 3” value in [3] (20 mg/kg single IV dose, day 44) worked out at 70%. For the same compound, in data set [3], the “tumor volume response (in words), FIG. 3” value was “reduction of tumor volume”.

For the compound “Rituximab-((EG2-MI (2%)-(10 kDa PHF-BA (28%)-(AF-HPA-Ala (9%)) [Example 16]”, the IC50 in data set [4] is 3040 pM; in data set [5], 5230 pM; in [7] it was 1880 pM; in data set [8], 27900 pM. Further, the “tumor growth response (in words), FIG. 6” value in data set [6] (single IV dose, Example 14 at […], Example 16 at 3 mg/kg) is listed as “no effect on tumor growth”.

As to “Trastuzumab-((EG2-MI (2%)-(10 kDa PHF-BA (28%)-(AF-HPA-Ala (9%) [Example 18A]”, the IC50 in data set [4] was 40 pM; in [5], 60 pM; in data set [9] it was 20 pM; in [7], 160 pM; in data set [8] it was 9600 pM. In addition, the “ka (association or affinity rate constant)” value (from here on “ka”) in [10] was 4.67 ± 0.7 × 10^5 M^−1s^−1. Further, the “kd (dissociation rate constant)” value in [10] is 2.07 ± 0.2 × 10^−5 s^−1.

“Trastuzumab-((EG2-MI (2%)-(10 kDa PHF-BA (28%)-(AF-HPA-Ala (9%) [Example 18B]”: the IC50 stood at 50 pM in data set [4]; 40 pM in data set [5]; 10 pM in [9]; 120 pM in data set [7]; 33000 pM in data set [8]. For the same compound, in data set [10], the “ka” value was 3.05 ± 0.2 × 10^5 M^−1s^−1. The “kd (dissociation rate constant)” value in data set [10] is reported as 2.46 ± 0.1 × 10^−5 s^−1.

Consider “Trastuzumab-((EG2-MI (2%)-(10 kDa PHF-BA (28%)-(AF-HPA-Ala (9%) [Example 17]”, for which the IC50 in [4] came out at 30 pM; in [5] it was 430 pM; in data set [9] it was 30 pM; in [7] it was 60 pM; in [8], 28800 pM; in data set [11], 300 pM. For the same compound, the “ka” value in data set [10] was 8.30 ± 0.2 × 10^5 M^−1s^−1. In addition, in data set [10], the “kd (dissociation rate constant)” value is given as 2.32 ± 0.2 × 10^−5 s^−1.

As for “Trastuzumab-((EG2-MI (2%)-(10 kDa PHF-BA (28%)-(AF-HPA-Ala (9%) [Example 15]”, the concentration for half-maximal inhibition (IC50) in data set [4] stood at 50 pM; in [5], 110 pM; in data set [9] it was 10 pM; in data set [7] it was 120 pM; in data set [8] it was 23500 pM. Also, the “complete regression out of 10 animals, FIG. 5” value in data set [6] (1 mg/kg single IV dose) was 1. Besides, the “partial regressions out of 10 animals, FIG. 5” value in data set [6] (1 mg/kg single IV dose) was determined as 7. The “complete responses, FIG. 5” value in data set [6] (3 mg/kg single IV dose) came to 100. The “tumor response (in words), FIG. 5” value in data set [6] (3 mg/kg single IV dose) is listed as “complete regression of tumor volume”.

Take “Rituximab-((EG2-MI (3%)-(10 kDa PHF-BA (30%)-(AF-HPA-Ala (8%)) [Example 9]”: in data set [2], inhibition was half-maximal at 6740 pM (IC50).

With “Trastuzumab-((EG2-MI (2.5%)-(10 kDa PHF-BA (28%)-(AF-HPA-Ala (8.4%) [Example 10]”, in [12] (2.0 mg/kg single IV dose), the “regressions, FIG. 4B” value was found to be 100% and the “tumor free survival at the end of the study, FIG. 4B” value was “all of which remained tumor free survival”. For the same compound, the “tumor volume response (in words), FIG. 4B” value in [12] (2 mg/kg single dose or […] weekly for 3 weeks, IV) is on record as “reduction of tumor volume”.

On to “Trastuzumab-((EG2-MI (2%)-(10 kDa PHF-BA (28%)-(AF-HPA-Ala (9%) [Example 18C]”, for which the IC50 in data set [4] stood at 30 pM; in data set [5], 60 pM; in data set [9] it was 20 pM; in data set [7], 180 pM; in [8], 3800 pM. The “ka” value in data set [10] is 4.25 ± 0.5 × 10^5 M^−1s^−1. The “kd (dissociation rate constant)” value in data set [10] is given as 2.03 ± 0.1 × 10^−5 s^−1.

Consider lintuzumab, for which the “tumor volume response (in words), FIG. 3” value in data set [3] is given as “increase of tumor volume”.

Consider “Trastuzumab-((EG2-MI (2%)-(10 kDa PHF-BA (28%)-(AF-HPA-Ala (9%) [Example 14]”, for which the IC50 in data set [4] came to 70 pM; in data set [5], 110 pM; in [9] it was 20 pM; in data set [7] it was 130 pM; in data set [8], 28900 pM. In [12] (2.0 mg/kg single IV dose), the “regressions, FIG. 4A” value is recorded as 100%. In addition, the “tumor free survival, FIG. 4A” value in [12] (2.0 mg/kg single IV dose) amounted to 100%. In [12] (single IV dose day 1, Example 14 at 2, 0.67 and 0.3 mg/kg, trastuzumab 20 mg/kg, Kadcyla 20 mg/kg), the “tumor volume response (in words), FIG. 4A” value was “reduction of tumor volume”. In addition, the “ka” value in data set [10] is on record as 3.91 ± 0.3 × 10^5 M^−1s^−1. Also, in [10], the “kd (dissociation rate constant)” value was 2.56 ± 0.1 × 10^−5 s^−1.

`CC[C@H](C)[C@@H]([C@@H](CC(=O)N1CCC[C@H]1[C@H](OC)[C@@H](C)C(=O)N[C@@H](Cc1ccccc1)C(=O)NCCCO)OC)N(C)C(=O)[C@@H](NC(=O)[C@H](C(C)C)N(C)C)C(C)C` [AF-HPA, Auristatin F-hydroxypropylamide] (NMe2Val-V[Dil][Dolaproine]F-{NH(3-hydroxypropyl)}): the IC50 came out at 1010 pM in [4]; 420 pM in data set [5]; 4800 pM in data set [2]; 860 pM in [7]; 4400 pM in data set [8]. In addition, the “metabolism of unconjugated AF-HPA in plasma (in words)” value in data set [13] (in plasma) is “not converted to AF”. Further, the “metabolism of released unconjugated AF-HPA in tissue (in words)” value in data set [13] (in tissue) is “further metabolized to AF”.
